Results: patent US11207301B2, “Sphingosine 1 phosphate receptor agonists for neuroprotection” (RECEPTOS LLC, priority 2017, dated 2021)
pIC50: −log10 of the molar value.

Key:
[1] = test system: cuprizone-induced mouse model of demyelination; assay: Cuprizone-induced mouse model of demyelination / neuroprotection; assay type: in vivo, C57BL/6 mice; settings: 1 mg/kg; vehicle 258±49.1, p<0.001
Source text: The effect of a S1P receptor agonist on spinal cord axial demyelination or reduction in axonal breaks can be assessed by measuring concentration of neurofilament light chain (NfL) in the plasma. NfL is released to the plasma following axonal injury and degeneration. Histological examination of axons with antineurofilament H non-phosphorylated mouse antibody SMI-32 can also be used to assess axonal demyelination or breaks. NfH is phosphorylated in healthy axons and unphosphorylated in damaged axons. In addition, the effects of ozanimod on the CNS were examined in vivo using the cuprizone-induced mouse model of demyelination and in vitro in primary rodent astrocytes. Efficacy of ozanimod or compound (2-R) was examined in the cuprizone-induced mouse model of neuroprotection. C57BL/6 mice were treated with cuprizone (0.3% weight/weight orally) and rapamycin (10 mg/kg intraperitoneally daily) to demyelinate axons in the brain and concurrently treated with ozanimod (0.1, 0.3, or 1 mg/kg) or compound (2-S) (1 mg/kg) by daily oral gavage to investigate its neuroprotective activity. Neuroprotection was assessed through examination of axonal pathology in the corpus callosum using SMI-32 (antineurofilament H non-phosphorylated mouse monoclonal antibody) staining, functional assessment through kinematic gait analysis and the plasma biomarker neurofilament light chain (NfL). Further, direct activity of ozanimod was examined in resting and activated primary rodent astrocytes in vitro.

[2] = biological target: T1, Recombinant human MAO-A (Homo sapiens, UniProt P21397); assay: MAO-A inhibition, conversion of kynuramine to 4-hydroxyquinoline; assay type: biochemical
T1 construct: purchased Sigma-Aldrich M7316; host or cells: baculovirus infected insect cells
T1 sequence (P21397 1-527): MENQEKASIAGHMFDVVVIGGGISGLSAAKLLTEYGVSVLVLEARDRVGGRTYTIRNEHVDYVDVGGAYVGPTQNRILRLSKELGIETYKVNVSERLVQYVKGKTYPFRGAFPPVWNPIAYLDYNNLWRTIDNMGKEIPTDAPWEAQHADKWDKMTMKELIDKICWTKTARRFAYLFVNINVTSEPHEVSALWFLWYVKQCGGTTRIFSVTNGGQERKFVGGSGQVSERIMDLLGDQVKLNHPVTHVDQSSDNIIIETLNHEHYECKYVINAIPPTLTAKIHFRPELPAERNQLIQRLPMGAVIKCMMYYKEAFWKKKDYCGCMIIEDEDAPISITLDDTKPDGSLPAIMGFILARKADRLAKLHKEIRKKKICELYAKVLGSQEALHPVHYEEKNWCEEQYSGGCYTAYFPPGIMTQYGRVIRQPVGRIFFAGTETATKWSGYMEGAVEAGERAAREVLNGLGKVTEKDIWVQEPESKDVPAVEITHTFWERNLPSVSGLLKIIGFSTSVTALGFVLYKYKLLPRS
Description: (§1) The effect of a S1P receptoragonist on MAO-B activity can be assessed by measuring the inhibition of conversion of substrate kynuramine to 4-hydroxyquinoline as described in Example 4.
(§2) Compound 1 and Compound 2-S were evaluated for their ability to inhibit MAO-A and MAO-B. Inhibition of the conversion of kynuramine, a substrate for MAO-A and MAO-B, to 4-hydroxyquinoline was used to assess the inhibitory potential of Compound 1 and Compound 2-S. Recombinant human MAO-A (product number M7316) and MAO-B (product number M7441) expressed in baculovirus infected insect cells were obtained from Sigma-Aldrich, Saint Louis, Mo. USA were used as a source of purified MAOs.
Recombinant MAO-A (0.01 mg/mL, final concentrations) and MAO-B (0.02 mg/mL, final concentration) were diluted to desired concentrations in 100 mM potassium phosphate buffer (pH 7.4) containing 5 mM MgCl2. The diluted protein fractions were preincubated with various concentrations of each test compound at 37° C. for 2 min. The concentrations used were 100, 33, 10, 3.3, 1.0, 0.33 μM and acetonitrile/DMSO as vehicle control for MAO-A and 1.0, 0.3, 0.1, 0.03, 0.01, 0.003 μM and acetonitrile/DMSO as vehicle control for MAO-B. The reaction was started by addition of kynuramine to the incubation mixture. The final concentration of kynuramine was 40 μM for MAO-A and 25 μM for MAO-B. The total incubation volume was 0.250 mL. […] The reaction product, 4-hydroxyquinoline was analyzed by LC-MS/MS as described below. […]
(§3) The gradient system was used to separate the analytes with a flow rate of 0.5 ml/min using mobile phase A, water containing 0.1% formic acid and mobile phase B, acetonitrile containing 0.1% formic acid. […] The analytes were monitored using multiple reaction monitoring and the ion transitions (Q1/Q3) were as follows: 4-hydroxyquinoline 146/104 (collision energy, CE was 27; declustering potential, DP, 50, and IS (acetaminophen), 152/110 (collision energy, CE was 27; declustering potential, DP, 50). All data were analyzed using AB Sciex Analyst v1.6.2 software.

[3] = biological target: T2, Recombinant human MAO-B (Homo sapiens, UniProt P27338); assay: MAO-B inhibition, conversion of kynuramine to 4-hydroxyquinoline; assay type: biochemical
T2 construct: purchased Sigma-Aldrich M7441; host or cells: baculovirus infected insect cells
T2 sequence (P27338 1-520): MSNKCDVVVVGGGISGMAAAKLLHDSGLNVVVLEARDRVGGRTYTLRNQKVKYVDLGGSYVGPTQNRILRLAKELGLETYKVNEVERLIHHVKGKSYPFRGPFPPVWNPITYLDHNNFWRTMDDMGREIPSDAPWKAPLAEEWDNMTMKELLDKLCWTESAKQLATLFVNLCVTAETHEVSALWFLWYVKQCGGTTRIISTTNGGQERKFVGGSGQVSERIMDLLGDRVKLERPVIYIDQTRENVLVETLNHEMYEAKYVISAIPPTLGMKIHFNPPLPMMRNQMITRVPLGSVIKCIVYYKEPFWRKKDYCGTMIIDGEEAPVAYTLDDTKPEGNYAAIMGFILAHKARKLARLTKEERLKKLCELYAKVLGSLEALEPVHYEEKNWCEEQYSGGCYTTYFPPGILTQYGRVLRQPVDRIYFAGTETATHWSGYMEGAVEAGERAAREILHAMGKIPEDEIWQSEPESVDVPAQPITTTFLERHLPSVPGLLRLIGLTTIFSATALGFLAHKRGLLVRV
Description: as §1, §2
Recombinant MAO-A (0.01 mg/mL, final concentrations) and MAO-B (0.02 mg/mL, final concentration) were diluted to desired concentrations in 100 mM potassium phosphate buffer (pH 7.4) containing 5 mM MgCl2. The diluted protein fractions were preincubated with various concentrations of each test compound at 37° C. for 2 min. The concentrations used were 100, 33, 10, 3.3, 1.0, 0.33 μM and acetonitrile/DMSO as vehicle control for MAO-A and 1.0, 0.3, 0.1, 0.03, 0.01, 0.003 μM and acetonitrile/DMSO as vehicle control for MAO-B. The reaction was started by addition of kynuramine to the incubation mixture. The final concentration of kynuramine was 40 μM for MAO-A and 25 μM for MAO-B. The total incubation volume was 0.250 mL. This concentration was selected to be close to the Km values of MAO-A (Km 42 μM) and MAO-B (Km 26 μM). After 10 min of incubation, aliquots (100 μL) of the reaction mixture were taken and added to 200 μL acetonitrile containing 0.5 μM IS (acetaminophen). The reaction product, 4-hydroxyquinoline was analyzed by LC-MS/MS as described below.
MS characterization and detection of kynuramine and 4-hydroxyquinoline was performed using ABI 4000 Sciex QTrap mass spectrometer utilizing a Turbo Spray. The mass spectrometer was controlled by Analyst v1.6.2. The ESI was operated in a positive ion mode and the experimental parameters were set as follows: ion spray voltage, 2000; source temperature, 550° C.; curtain gas, 20; collision gas, medium ion source gas 1, 55; ion source gas 2, 50. […]
as §3

## CC(C)Oc1ccc(-c2nc(-c3cccc4c3CC[C@@H]4N)no2)cc1C#N [Compound 2-S]
[1]
  plasma biomarker NfL: 127 ± 12.2 pg/mL
[2]; kynuramine 40 μM, 10 min incubation
  pIC50: 5.92
[2]; tested up to 100 μM
  MAO-A inhibition (in words): inhibitory activity
[3]
  MAO-B inhibition (in words): inhibitory activity
[3]; kynuramine 25 μM, 10 min incubation
  pIC50: 7.49
